{
  "source": "paper PMC8230315",
  "about": "“A Pan-Inhibitor for Protein Arginine Methyltransferase Family Enzymes” (Biomolecules, 2021)",
  "format_in_all_cases": "biochemical",
  "key": {"G9a": {"system": "G9a", "assay": "Selectivity SAHH-coupled fluorescence assay, G9a", "from_the_text": "(§1) We chose the top four potent compounds (6b and 6l–n) to investigate their selectivities against several in-house methyltransferases including protein arginine methyltransferase TbPRMT7, two members of the protein lysine methyltransferase PKMT (G9a and SETD7), protein N-terminal methyltransferase 1 (NTMT1), and a small molecule methyltransferase nicotinamide N-methyltransferase (NNMT), all of which have a SAM binding site.\n(§2) A fluorescence-based SAHH-coupled assay was applied to study the effect of the compound on methyltransferase activity of PRMT7, NTMT1, SETD7, G9a, NNMT, and SAHH. For PRMT7, the assay was performed in a final well volume of 100 μL: 25 mM Tris (pH = 7.5), 50 mM KCl, 0.01% Triton X-100, 5 μM SAHH, 0.2 μM PRMT7, 3 μM AdoMet, and 15 μM ThioGlo1. After incubation for 10 min with the inhibitor, reactions were initiated by the addition of 60 μM H4-21 peptide, and the reaction was monitored for 15 min. […] After incubation for 10 min with the inhibitor, reactions were initiated by the addition of 0.5 μM GPKRIA peptide, and the reaction was monitored for 15 min. […] After incubation for 10 min with the inhibitor, reactions were initiated by the addition of 90 μM H3-21 peptide, and the reaction was monitored for 15 min. […] After incubation for 10 min with the inhibitor, reactions were initiated by the addition of 10 μM nicotinamide, and the reaction was monitored for 18 min. […]"}, "TbPRMT7": {"target": "T1, TbPRMT7 (Trypanosoma brucei brucei, UniProt Q582G4)", "T1 construct": "made in house", "assay": "Selectivity SAHH-coupled fluorescence assay, TbPRMT7", "settings": "at 1.2 μM", "from_the_text": "as §1, §2"}, "SETD7": {"target": "T2, SETD7 (Homo sapiens, UniProt Q8WTS6)", "T2 construct": "made in house", "T2 sequence (Q8WTS6 1-366)": "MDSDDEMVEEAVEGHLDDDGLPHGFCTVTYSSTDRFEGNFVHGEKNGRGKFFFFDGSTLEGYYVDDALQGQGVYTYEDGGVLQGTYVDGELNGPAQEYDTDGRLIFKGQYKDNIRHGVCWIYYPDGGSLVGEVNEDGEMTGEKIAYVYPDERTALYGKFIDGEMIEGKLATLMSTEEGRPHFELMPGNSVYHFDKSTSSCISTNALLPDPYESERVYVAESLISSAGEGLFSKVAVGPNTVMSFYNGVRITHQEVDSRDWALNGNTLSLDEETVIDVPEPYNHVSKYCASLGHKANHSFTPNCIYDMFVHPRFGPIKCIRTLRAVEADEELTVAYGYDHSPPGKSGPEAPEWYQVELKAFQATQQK", "assay": "Selectivity SAHH-coupled fluorescence assay, SETD7", "from_the_text": "as §1\nA fluorescence-based SAHH-coupled assay was applied to study the effect of the compound on methyltransferase activity of PRMT7, NTMT1, SETD7, G9a, NNMT, and SAHH. For PRMT7, the assay was performed in a final well volume of 100 μL: 25 mM Tris (pH = 7.5), 50 mM KCl, 0.01% Triton X-100, 5 μM SAHH, 0.2 μM PRMT7, 3 μM AdoMet, and 15 μM ThioGlo1. After incubation for 10 min with the inhibitor, reactions were initiated by the addition of 60 μM H4-21 peptide, and the reaction was monitored for 15 min. For NTMT1, the assay was performed in a final well volume of 100 μL: 25 mM Tris (pH = 7.5), 50 mM KCl, 0.01% Triton X-100, 5 μM SAHH, 0.1 μM NTMT1, 3 μM AdoMet, and 10 μM ThioGlo4. After incubation for 10 min with the inhibitor, reactions were initiated by the addition of 0.5 μM GPKRIA peptide, and the reaction was monitored for 15 min. For SETD7, the assay was performed in a final well volume of 100 μL: 25 mM potassium phosphate buffer (pH = 7.6), 0.01% Triton X-100, 5 μM SAHH, 1 μM SETD7, 2 μM AdoMet, and 10 μM ThioGlo1. After incubation for 10 min with the inhibitor, reactions were initiated by the addition of 90 μM H3-21 peptide, and the reaction was monitored for 15 min. For G9a, the assay was performed in a final well volume of 100 μL: 25 mM potassium phosphate buffer (pH = 7.6), 1 mM EDTA, 2 mM MgCl2, 0.01% Triton X-100, 5 μM SAHH, 0.1 μM His-G9a, 10 μM AdoMet, and 10 μM ThioGlo4. For NNMT, the assay was performed in a final well volume of 100 μL: 25 mM Tris (pH = 7.5), 50 mM KCl, 0.01% Triton X- 100, 5 μM SAHH, 0.1 μM NNMT, 10 μM AdoMet, and 10 μM ThioGlo1. After incubation for 10 min with the inhibitor, reactions were initiated by the addition of 10 μM nicotinamide, and the reaction was monitored for 18 min. The inhibitors were added at five concentrations: 100, 33.3, 11.1, 3.7, and 1.2 μM."}, "NNMT": {"system": "NNMT", "assay": "Selectivity SAHH-coupled fluorescence assay, NNMT", "from_the_text": "as §1, §2"}, "PRMT1 [1]": {"target": "T3, PRMT1 (Homo sapiens, UniProt Q99873)", "T3 sequence (Q99873 whole entry, species assumed)": "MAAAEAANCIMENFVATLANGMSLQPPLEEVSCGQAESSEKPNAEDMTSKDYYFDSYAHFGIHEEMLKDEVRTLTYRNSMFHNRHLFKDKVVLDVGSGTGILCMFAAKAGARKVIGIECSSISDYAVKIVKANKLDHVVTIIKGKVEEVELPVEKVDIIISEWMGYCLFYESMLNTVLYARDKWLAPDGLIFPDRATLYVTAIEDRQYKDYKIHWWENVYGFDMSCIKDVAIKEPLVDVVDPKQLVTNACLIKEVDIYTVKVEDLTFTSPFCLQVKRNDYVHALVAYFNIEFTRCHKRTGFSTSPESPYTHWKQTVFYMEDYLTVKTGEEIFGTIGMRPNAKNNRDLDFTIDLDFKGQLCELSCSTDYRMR", "assay": "HotSpot radioisotope 3H-AdoMet methyltransferase assay (Reaction Biology), PRMT1", "procedure": "Future studies will focus on obtaining structural information of II757 bound to PRMTs to inform how to connect to a substrate portion to increase both potency and selectivity for each PRMT.\nFigure 6 Selectivity of II757 against the panel of PRMTs. II757 was tested in 10 doses with threefold serial dilution in the HotSpot methyltransferase assay at reaction biology. TEXT PRINTED IN THE PICTURE: II757: IC50 (nM) PRMT1: 16.4; IC50 (nM) PRMT3: 321; IC50 (nM) PRMT4: 5.05; IC50 (nM) PRMT5/MEP50 Complex: 18.2; IC50 (nM) PRMT5 (C449S)/MEP50: 36.6; IC50 (nM) PRMT6: 30.5; IC50 (nM) PRMT7: 555; IC50 (nM) PRMT8: 32.1"}, "PRMT1 [2]": {"target": "T3, PRMT1", "assay": "Inhibition mechanism kinetic analysis, SAHH-coupled fluorescence assay with PRMT1", "procedure": "The fluorescence-based SAHH-coupled assay was employed for the enzyme kinetic study. Varying concentrations of SAM (from 0.5 to 8 Km) with 5 μM fixed concentration of H4-21 or varying concentration of H4-21 (from 0.5 to 8 Km) with 10 μM fixed concentration of SAM was included in reactions with a series concentration of compounds. All the IC50 values were determined in triplicate. Fluorescence was monitored on a BMG CLARIOstar microplate with excitation at 380 nm and emission at 505 nm. Data were processed using GraphPad Prism software 7.0."}},
  "note": "pIC50: −log10 of the molar value. “Also recorded” adds a separate entry of the source.",
  "data": [
    {"molecule": "N=C(NCCCSC[C@H]1O[C@@H](n2cnc3c(N)ncnc32)[C@H](O)[C@@H]1O)Nc1cccc(Br)c1", "note": "[Compound 6l, 1-(3-((((2S,3S,4R,5R)-5-(6-amino-9H-purin-9-yl)-3,4-dihydroxytetrahydrofuran-2-yl)methyl)thio)propyl)-3-(3-bromophenyl)guanidine]", "values": [
      {"measurement": "selectivity over G9a", "setting": "G9a", "result": "over 1000 fold"},
      {"measurement": "activity against PRMT7", "setting": "TbPRMT7", "result": "about 30%"},
      {"measurement": "selectivity over SETD7", "setting": "SETD7", "result": "over 1000 fold"},
      {"measurement": "selectivity over NNMT", "setting": "NNMT", "result": "over 1000 fold"},
      {"measurement": "pIC50", "setting": "PRMT1 [1]", "result": 7.79},
      {"measurement": "inhibition pattern versus peptide substrate H4-21", "setting": "PRMT1 [2]; H4-21 from 0.5 to 8 Km, SAM fixed at 10 µM", "result": "noncompetitive"},
      {"measurement": "inhibition pattern versus SAM", "setting": "PRMT1 [2]; SAM from 0.5 to 8 Km, H4-21 fixed at 5 µM, listed as II757", "result": "competitively binds at the SAM binding site; also recorded: SAM-competitive inhibitor"}
    ]}
  ]
}
